Square brackets hold non-standard residues; d marks the D form. Ends that are not written are not given here. pY = N[C@@H](Cc1ccc(OP(=O)(O)O)cc1)C(=O)O
Columns and labels:
Type in all cases: cell-based
[1] = system: ex vivo grown human hair follicles; assay: Activation of ex vivo cultured hair follicles (hair bulb area image analysis, histology, Ki67); conditions: for proliferation and differentiation of the hair bulb area (hair follicle activation): combination of PT (mALA and red light), 24 hours after treatments
Experimental: Human hair follicles were obtained from human scalp samples taken from the occipital skin of volunteer donors during a hair transplant procedure. Eligible patients provided written informed consent, and the Ethical committee of the Ramon y Cajal Hospital approved this procedure.
Follicular units (FUs) were dissected using scalpels under a magnifier, and the ones in resting phase (telogen) were selected. Those FUs were transferred to the laboratory and maintained at 4 °C until processed in Williams' medium E (Sigma) supplemented with 10x Penicilin/Streptomycin, 10x Aphotericin B, and 2 mM L-Glutamin (all from Gibco), 5 µg/ml Insulin, 5 µg/ml transferring, 20 pM T3 hormone, 0.083 µg/ml cholera toxin and 0.4 µg/ml hydrocortisone. FUs can be stored in complete Williams' medium at 4 °C for approximately 5 days without significant loss of the mini organ function. FU cultures were maintained at 37°C in a 5% CO2 humidified atmosphere.
Endogenous protoporphyrin IX (PpIX)-dependent photodynamic treatments (PT) were routinely performed on exponentially growing cells at 60% of confluence, as well as in ex vivo cultured hair follicles (HF) (Carrasco E et al. Methods 15:109, 2016; Calvo-Sanchez MI et al. Sci. Rep.9:4509, 2019). To that end, cells and HFs were incubated for 2-4 hours, normally 2 hours, with 0.1 mM of a PpIX metabolic precursor (typically, aminolevulinic acid ALA, or the ALA methylated derivative methyl aminolevulinate mALA) in the corresponding medium in the absence of serum or growth factors. Immediately, approximately 1 minute, after the incubation step the samples were further irradiated 2-15 min, normally between 8 and 10 minutes, with a red-light emitting diode source with an emission peak at 634 nm bandwidth, with a total light dose of 2-10 J/cm^2, normally 4 J/cm^2 (Carrasco E et al. Methods 15:109, 2016; Calvo-Sanchez MI et al. Sci. Rep.9:4509, 2019). […] Additionally, total controls in strict dark conditions (no PpIX precursor, no light) were evaluated for each biological model, although this control was not routinely used in experimental series since ambient light is an unavoidable contaminant, and the light control is the most adequate in this experimental design.
For the quantification of the number of cells in cell cultures after different treatments, a Bio-Rad TC20™ automated cell counter was used following the instructions of the manufacturer. […] Image acquisition was performed using a Nikon Eclipse Ci LED-fluorescence microscope using a 2x objective and a 0.55x Reduction Lens adapter coupled to a Jenoptik PROGRES GRYPHAX® SUBRA Super HD camera and suited Version 1.1.8.153 image software pack. […] Total hair bulb area in high resolution images of whole hair follicles was spotted and quantified using suited free FIJI software packs (https://fiji.sc/). […]

[2] = system: cSrc kinase; assay: cSrc Tyr419 phosphorylation by immunoblot in treated cell cultures; conditions: mouse E14 embryonic stem cells; peptide 100 nM; Figure 1A
Experimental: (§1) E14 cell line is a derivative of mice embryonic stem cells (ES) obtained from the Inner Cell Mass of 129/Ola mouse strain blastocyst. E14 cells were grown on 0,1% gelatin-coated flasks in GMEM supplemented with 10% FCS tested for stem cells, 0.1 mM mixture of Non Essential Amino acids (NEAA, composed by Glycine, L-Alanine, L-Asparagine, L-Aspartic Acid, L-Glutamic acid, L-Proline and L-Serine), 2 mM L-Glutamine, 1 mM sodium pyruvate, 0.05 mM β-mercaptoethanol, Penicilin/Streptomicin (100 U/ml / 100 µg/ml) and 2.5 µg/ml amphotericin B (all from Gibco) and 1,000 U/ml LIF (Millipore), and splitted 1:8 to 1:10 every 2-3 days using Trypsin-EDTA (Invitrogen) (Smith, 1991; Cambray et al, 2012). Cells were maintained at 37°C in a 5% CO2 humidified atmosphere. The medium was changed on alternative days.
(§2) Here the functional activation of the cSrc kinase has been specifically associated with the phosphorilation of the Tyr419 residue (or equivalent) of the cSrc protein (Espada J and Martin-Perez J. Int Rev Cell Mol Biol 331:82, 2017). […] The biological activity of each YEEI phosphopeptide batch was evaluated by immunoblot detection of cSrc-Tyr419 levels in protein extracts obtained from treated cell cultures (see Figure 1) […]

[3] = system: human primary skin fibroblasts; assay: Cell proliferation (automated cell counting), with or without phototreatment; conditions: for enhancement of PT-induced cell proliferation: human primary fibroblasts, 48 hours after irradiation
Experimental: Primary cultures of human fibroblasts were obtained from normal human skin. Collection of skin biopsy punches, 4mm diameter, from volunteer donors was routinely performed in the Dermatology Service of the Ramon y Cajal University Hospital, Madrid, Spain, following the regulations of the hospital ethics committee for human research, eligible patients providing written informed consent.
Skin samples were transferred to the laboratory and maintained at 4 °C in DMEM medium (Gibco) with 10x Penicilin/Streptomycin and 10x Aphotericin B until processed, not exceeding 24h. Then, the subcutaneous layer was removed using scalpels, and skin biopsies were cut in small pieces of 1-4 mm^2. In order to obtain primary fibroblasts, skin pieces were incubated in 1mg/ml of collagenase A enzyme (Roche) solution for 4 hours at 37 °C, in mild agitation in order to help cell dissociation.
The supernatant containing the fibroblasts was vigorously pipetted and diluted in DMEM medium supplemented with 10% FCS, 2 mM L-Glutamine, Penicilin/Streptomicin (100 U/ml / 100 µg/ml) and 2.5 µg/ml amphotericin B and centrifuged for five minutes at 1500 RPM. The pellet was resuspended in complete DMEM medium and the fibroblasts were seeded in a maximum density of 1 million cells per ml using a 24 well plate and routinely grown at 37°C in a humidified atmosphere containing CO2 5%. 24 hours later, medium was removed to eliminate all detached cells. The cells were passaged when they reached 70-80% confluency, in order to prevent differentiation. The primary culture reached appropriate confluence after 8 to 10 days, and the derivative subcultures were splitted 1:4 once a week. After 10 to 20 passages, cells undergo senescence.
Endogenous protoporphyrin IX (PpIX)-dependent photodynamic treatments (PT) were routinely performed on exponentially growing cells at 60% of confluence, as well as in ex vivo cultured hair follicles (HF) (Carrasco E et al. Methods 15:109, 2016; Calvo-Sanchez MI et al. Sci. Rep.9:4509, 2019). To that end, cells and HFs were incubated for 2-4 hours, normally 2 hours, with 0.1 mM of a PpIX metabolic precursor (typically, aminolevulinic acid ALA, or the ALA methylated derivative methyl aminolevulinate mALA) in the corresponding medium in the absence of serum or growth factors. Immediately, approximately 1 minute, after the incubation step the samples were further irradiated 2-15 min, normally between 8 and 10 minutes, with a red-light emitting diode source with an emission peak at 634 nm bandwidth, with a total light dose of 2-10 J/cm^2, normally 4 J/cm^2 (Carrasco E et al. Methods 15:109, 2016; Calvo-Sanchez MI et al. Sci. Rep.9:4509, 2019). Immediately after irradiation, approx. 1 minute after, samples were washed in PBS, fresh medium was added, and were further routinely grown at 37°C in a humidified atmosphere containing CO2 5%. When required, activators of cSrc kinase or inhibitors of Eng function (see below) were added, alone or in combination, in the fresh medium used immediately after irradiation, and samples were subsequently incubated for the indicated times. […] Additionally, total controls in strict dark conditions (no PpIX precursor, no light) were evaluated for each biological model, although this control was not routinely used in experimental series since ambient light is an unavoidable contaminant, and the light control is the most adequate in this experimental design. […]

[4] = system: mouse E14 embryonic stem cells; assay: as above; conditions: for enhancement of PT-induced cell proliferation: PT (mALA and red light) combined with YEEI phosphopeptide and/or S-Eng, 48 hours after irradiation
Experimental: as §1
Endogenous protoporphyrin IX (PpIX)-dependent photodynamic treatments (PT) were routinely performed on exponentially growing cells at 60% of confluence, as well as in ex vivo cultured hair follicles (HF) (Carrasco E et al. Methods 15:109, 2016; Calvo-Sanchez MI et al. Sci. Rep.9:4509, 2019). […] Additionally, total controls in strict dark conditions (no PpIX precursor, no light) were evaluated for each biological model, although this control was not routinely used in experimental series since ambient light is an unavoidable contaminant, and the light control is the most adequate in this experimental design.
as §2

Question: Which results are given for `COC(=O)CCC(=O)CN` [mALA, methyl aminolevulinate]?
Answer: time after PT at which HF activation is evident ([1]; PT using mALA and red light, compared to control, Figure 6): 5 days; time after treatment at which activation occurs ([1]; photodynamic treatment with mALA and red light, Figures 6 and 7): approximately 5 days

Question: For “Glu-Pro-Gln-Tyr(PO3H2)-Glu-Glu-Ile-Pro-Ile-Tyr-Leu (EPQ[pY]EEIPIYL) [YEEI phosphopeptide]”, which “Tyr419 cSRC phosphorilation” value [2] is on record?
Answer: The value was “induced”.

Question: And the “enhancement of PT-induced cell proliferation” value (“enhancement” for short) ([3]; PT (mALA and red light) combined with YEEI phosphopeptide and/or Apt1 or Apt2, Figure 5)?
Answer: Its value is “significantly enhanced”.

Question: And the “enhancement” value ([3]; PT (mALA and red light) combined with YEEI phosphopeptide and/or Apt1 or Apt2, Figure 5, listed as YEEI peptide)?
Answer: Its value is “markedly increased”.

Question: And the “enhancement” value ([3]; PT (mALA and red light) combined with YEEI phosphopeptide and/or siRNA of SEQ ID NO 2, Figure 4)?
Answer: Its value is “significantly enhanced”.

Question: And the “enhancement” value ([3]; PT (mALA and red light) combined with YEEI phosphopeptide and/or siRNA of SEQ ID NO 2, Figure 4, listed as YEEI peptide)?
Answer: The value was “markedly increased”.

Question: What about the “induction of cell proliferation” value ([3]; human primary skin fibroblasts, 48 hours after treatments, peptide alone, Figure 1B) of the same compound?
Answer: Its value is “statistically significant induction”.

Question: What about the “induction of cell proliferation” value ([4]; 48 hours after treatments, peptide alone, Figure 1B) of the same compound?
Answer: The value was “statistically significant induction”.

Question: And the “enhancement” value ([4]; Figure 3)?
Answer: Its value is “significantly enhanced”.

Question: And the “enhancement” value ([4]; Figure 3, listed as YEEI peptide)?
Answer: The value was “markedly enhanced”.

Question: What about the “proliferation and differentiation of the hair bulb area (hair follicle activation)” value ([1]; YEEI phosphopeptide and Apt1 or Apt2, Figure 9) of the same compound?
Answer: The value was “significantly promotes”.

Question: And the “proliferation and differentiation of the hair bulb area (hair follicle activation)” value ([1]; YEEI phosphopeptide and siRNA of SEQ ID NO 2, Figure 8)?
Answer: Its value is “significantly promotes”.

— EP3900733A1, “SRC KINASE ACTIVATORS AND ENG FUNCTION INHIBITORS AS ENHANCERS OF SKIN HOMEOSTASIS/REGENERATION AND HAIR GROWTH” (Derma Innovate S.L., priority 2020, dated 2021)
